# Assay results published in US11440903B2, “Salt form and crystal form of compound as FGFR4 inhibitor and preparation method thereof” (GUANGDONG ZHONGSHENG PHARMACEUTICAL CO., LTD, priority 2017, dated 2022).
# Where two headings read alike, the source gives them in different places.
# Assay: Solubility test in biological media (FaSSIF, FeSSIF, SGF) and water, 37° C.
# Assay type: physicochemical
# Settings: for Status (24 h) / solubility at 24 h / pH 24 hours: 37° C.; for Status (24 h): about 4 mg in 2 mL; for solubility at 24 h: salt forms converted to salt concentrations, read-out: Solubility (mg/mL) 24 hours; for pH 24 hours: supernatant; for pH 0 hour: initial
# Description: Step 1: Preparation of Control Solutions (0.2 mg/mL, calculated by free base)
# 2 mg the crystal form B of the compound represented by formula (I) (or 2.4 mg the crystal form E of the compound represented by formula (II)) as a control was precisely weighed and placed into a 40 mL glass vial, and a diluent (10 mL) was precisely added. The reaction solution was subjected to ultrasonic treatment for 20 min to sufficiently dissolve, then cooled to room temperature and shaked well. Two control solutions (STD #1, STD #2) were formulated in accordance with this method.
# Step 2: Preparation of Linear Solutions
# The control solution STD #1 of the crystal form B of the compound represented by formula (I) was 1×, 10×, 100×, 1000× and 2000× (free base LOQ) diluted, and designated as the linear solutions L1, L2, L3, L4 and L5; the control solution STD #1 of the crystal form E of the compound represented by formula (II) was 1×, 10×, 100× and 1000× (methanesulfonate LOQ) diluted, and designated as the linear solutions L1, L2, L3, L4.
# Step 3: Solubility Test of the crystal form B of the compound represented by formula (I), the crystal form G of the compound represented by formula (III) and the crystal form E of the compound represented by formula (II) in biological media and water
# 4 samples (about 4 mg) of each of the crystal form B of the compound represented by formula (I), the crystal form E of the compound represented by formula (II), and the crystal form G of the compound represented by formula (III) were added into 12 glass vials (4 mL), respectively, and then 2 mL different biological media (FaSSIF, FeSSIF, SGF) and water were added into each compound respectively, then mixed homogeneously to form a suspension. The suspension was detected for its initial pH value. A magnet was added into the suspension, and placed on a magnetic stirring heater for stirring (at a temperature of 37° C., in dark). After stirring for 24 h, a sample was taken. The taken sample was quickly centrifuged, and the residual solid was detected by XRPD. The supernatant was detected for its pH value and diluted with a diluent into appropriate multiple, then measured with HPLC for its concentration.
# FaSSIF: 1. 0.042 g sodium hydroxide, 0.3438 g sodium dihydrogen phosphate and 0.6186 g sodium chloride were weighed, added into 90 mL purified water, and homogeneously mixed, then, the mixture was adjusted with 1 N hydrochloric acid or 1 N sodium hydroxide to pH=6.5, and diluted into a constant volume of 100 mL with purified water; 2. 50 mL of the buffer described above was taken, and 0.224 g commercially available powder (Biorelevant.com) of FaSSIF/FeSSIF/FaSSGF was added thereto, the mixture was stirred to dissolve, and diluted with purified water to a constant volume of 100 mL.
# FeSSIF: 1. 0.404 g sodium hydroxide, 0.865 g glacial acetic acid, and 1.1874 g sodium chloride were weighed, added into 90 mL purified water, and homogeneously mixed, then, the mixture was adjusted with 1 N hydrochloric acid or 1 N sodium hydroxide to pH=5.0, and diluted with purified water to a constant volume of 100 mL, 2. 50 mL of the buffer described above was taken, and 1.12 g commercially available powder (Biorelevant.com) of FaSSIF/FeSSIF/FaSSGF was added thereto, the mixture was stirred to dissolve, and diluted with purified water to a constant volume of 100 mL.
# FaSSGF (SGF): 1. 0.2 g sodium chloride was weighed, added into 90 mL purified water, and mixed homogeneously, the mixture was adjusted with 1 N hydrochloric acid to pH=1.8, and diluted with purified water to a constant volume of 100 mL, and stood at room temperature.
# [1] = SGF (FaSSGF), pH 1.8, simulated gastric fluid, thermodynamic from solid, SGF
# [2] = pH 5, thermodynamic from solid, FeSSIF
# [3] = pH 6.5, thermodynamic from solid, FaSSIF
# [4] = thermodynamic from solid, Water
Status (24 h) (FaSSIF),"solubility in three types of biological media, conclusion in words (FaSSIF, FeSSIF, SGF)",Status (24 h) (FeSSIF),solubility at 24 h [1] [mg/mL],Status (24 h) (SGF),Status (24 h) (Water),solubility at 24 h [2] [mg/mL],solubility at 24 h [3] [mg/mL],pH 24 hours (FaSSIF),pH 24 hours (FeSSIF),pH 24 hours (SGF),pH 24 hours (Water),pH 0 hour (suspension in FaSSIF),pH 0 hour (suspension in FeSSIF),pH 0 hour (suspension in SGF),pH 0 hour (suspension in Water),solubility at 24 h [4] [mg/mL],Compound
Suspension,good solubility,Suspension,0.014,Suspension,Suspension,0.284,0.041,7.10,5.18,2.48,7.30,7.04,4.98,2.21,8.34,0.007,C=CC(=O)N[C@H]1COC[C@H]1Nc1ncc(/C=C(\F)c2c(Cl)c(OC)cc(OC)c2Cl)cn1 [Crystal Form B]
Suspension,good solubility,Suspension,0.041,Suspension,Suspension,0.358,0.036,6.81,5.11,2.31,2.74,6.97,4.92,2.17,3.50,0.1,C=CC(=O)N[C@H]1COC[C@H]1Nc1ncc(/C=C(\F)c2c(Cl)c(OC)cc(OC)c2Cl)cn1.CS(=O)(=O)O [Crystal Form E]
